Columns and labels:
carbonyl reductase = test: Metabolism to the hydroxy metabolite
[1] = tested on: mice fed a diet enriched in trans fat, cholesterol and fructose; test: Trans fat, cholesterol and fructose diet for 19 weeks: hepatic damage and fibrosis; type: in vivo
Protocol: Mice were fed a diet enriched in trans fat, cholesterol and fructose for 19 weeks to induce hepatic damage and metabolic dysfunction, which was assessed by histological changes in the NAS and fibrosis, measured by trichrome staining for collagen. MSDC-0602K (30 mg/kg) was given at either four weeks into the treatment or 16 weeks into the treatment as compared to the vehicle treated mice who were also on the modified diet. The results of mice who were kept on the normal diet are included for comparison. […] The signals for activation of the stellate cells and fibrosis are attenuated by treatment of the mice or isolated hepatocytes with MSDC-0602K.

[2] = tested on: mice on high trans-fat, fructose, cholesterol (HTF-C) diet; test: Serum miRNA sequencing in HTF-C diet mice; type: in vivo; conditions: HTF-C diet containing 331 ppm MSDC-0602K after 4 or 16 weeks of plain HTF-C diet
Protocol: To begin evaluating the exosome cargo of MSDC-0602K-treated mice, WT mice were fed with either a low fat (LF) control diet (Research Diets D09100304) or high trans-fat, fructose, cholesterol (HTF-C) diet composed of 40% trans-fat, 20% fructose, 2% cholesterol (Research Diets D09100301). A subset of mice was fed plain HTF-C diet for 4 or 16 weeks, then switched to HTF-C diet that contained 331 ppm MSDC-0602K.
Total RNA was isolated from 400 μL of serum and small RNA sequencing was performed by adapter ligation, cDNA synthesis and size selection of 145-160 base pairs. Sequencing was then performed on an Illumina HiSeq3000.

[3] = tested on: diet-induced obese (60% HF diet) WT (fl/fl) and LS-MPC2−/− mice; test: Single dose in diet-induced obese WT and LS-MPC2−/− mice (GTT, plasma insulin, ALT, liver qPCR); conditions: for glucose tolerance (GTT): 20 h after a single gavage of 30 mg/kg, vs vehicle
[4] = tested on: subjects with biopsy proven non-alcoholic steatohepatitis (NASH) with fibrosis and no cirrhosis; test: EMMINENCE Phase 2b clinical trial; type: in vivo, human
[5] = tested on: cell functions and key regulatory proteins; test: Impact of MSDC-0602K vs overnutrition on cell functions and key regulatory proteins (Table 1)
[6] = tested on: subjects with biopsy proven non-alcoholic steatohepatitis (NASH) with fibrosis and no cirrhosis; test: EMMINENCE Phase 2b clinical trial; type: in vivo, human; conditions: for Peripheral Edema Present at Baseline / Isoleucine Baseline / Leucine Baseline / TotalBCAA Baseline / Valine Baseline / Mean HbA1c at Baseline: before treatment; for Isoleucine Visit 7 / Leucine Visit 7 / TotalBCAA Visit 7 / Valine Visit 7: 12-month endpoint; for HbA1c Placebo-corrected change from Baseline at 6 months: ▾ (decrease)
Protocol: An interim analysis of the EMMINENCE Phase 2b trial was conducted in the first 328 subjects who reached their six-month follow-up visit. This study is a randomized, double-blinded study of three doses (62.5 mg 125 mg, or 250 mg) of MSDC-0602K or placebo given orally once daily to subjects with biopsy proven non-alcoholic steatohepatitis (NASH; a non-limiting example of a metabolic disorder) with fibrosis and no cirrhosis.
The subjects included in this interim analysis had significant liver disease, as established by liver biopsy, with an average NAS at baseline of 5.3. […] Overall, baseline characteristics were well-balanced across treatment groups.

[7] = 62.5 mg, N = 99, mean, baseline to 12-month endpoint
[8] = 125 mg, mean, baseline to 12-month endpoint
[9] = 250 mg, N = 101, mean, baseline to 12-month endpoint
[10] = 1-year Phase 2b dose-ranging trial, fatty liver disease with or without type 2 diabetes
[11] = all MSDC-0602K dose cohorts, interim analysis
[12] = all subjects, six months, 125 mg and 250 mg doses

COc1cccc(C(=O)COc2ccc(CC3SC(=O)NC3=O)cc2)c1 (stereo not shown) [MSDC-0602K]
metabolism (carbonyl reductase): metabolized to its hydroxy metabolite (MSDC-0597) by a carbonyl reductase
signals for activation of the stellate cells and fibrosis ([1]; 30 mg/kg from week 4 or week 16 of a 19-week diet, mice or isolated hepatocytes): attenuated
high fat, high cholesterol, high sugar diet-induced metabolic dysfunction ([1]; multiple animal models): protect against
serum miRNAs altered by HTF-C diet [2]: largely corrected
glucose tolerance (GTT) ([3]; LS-MPC2−/− mice): no improvement in glucose tolerance
plasma ALT and liver injury gene expression in LS-MPC2−/− mice ([3]; LS-MPC2−/− mice, acute treatment): refractory to the beneficial effects
glucose tolerance (GTT) ([3]; WT mice): improved glucose tolerance
plasma ALT concentrations ([3]; WT mice, single dose (FIG. 8A)): decreased plasma ALT concentrations
gene expression for hepatic stellate cell activation and fibrotic scar formation ([3]; WT mice, single dose (FIG. 8B)): decreased gene expression
plasma insulin values ([3]; both WT and LS-MPC2−/− mice, single dose 30 mg/kg): decreased
Leucine Change from Baseline [4, 7]: −6.74
Valine Change from Baseline [4, 8]: −6.08
Isoleucine Visit 7 ([4]; 250 mg, N = 101, mean, 12-month endpoint): 56.15
Leucine Change from Baseline [4, 9]: −10.55
TotalBCAA Change from Baseline [4, 9]: −37.80
Branched Chain Amino Acids (BCAA) ([4]; baseline to 12-month endpoint (Visit 7)): reduced
Fatty acid oxidation (burning fat) [5]: Increased
HIF1α (transcription factor responding to oxygen) [5]: Decreased
Inflammation (ballooning due to injury) [5]: Decreased
Insulin sensitivity (cellular response to insulin) [5]: Increased
PPARγ, PPARα (transcription factors regulating fat metabolism and inflammation) [5]: Increased
SREBP (transcription factor regulating fat synthesis) [5]: Decreased
de novo lipid synthesis (making new fat) [5]: Decreased
mTORC1 (important nutrient sensor) [5]: Decreased
Peripheral Edema Present at 6 months ([6]; 62.5 mg (n = 81)): 7.80%
Peripheral Edema Present at Baseline ([6]; 62.5 mg group (n = 81)): 13.60%
Isoleucine Visit 7 ([6]; 62.5 mg, N = 99, mean): 61.47
Leucine Visit 7 ([6]; 62.5 mg, N = 99, mean): 114.63
TotalBCAA Visit 7 ([6]; 62.5 mg, N = 99, mean): 397.39
Valine Visit 7 ([6]; 62.5 mg, N = 99, mean): 221.29
Isoleucine Change from Baseline [6, 7]: −6.58
TotalBCAA Change from Baseline [6, 7]: −30.07
Valine Change from Baseline [6, 7]: −16.74
Isoleucine Baseline ([6]; 62.5 mg, N = 99, mean): 69.03
Leucine Baseline ([6]; 62.5 mg, N = 99, mean): 121.80
TotalBCAA Baseline ([6]; 62.5 mg, N = 99, mean): 430.03
Valine Baseline ([6]; 62.5 mg, N = 99, mean): 239.20
Peripheral Edema Present at 6 months ([6]; 125 mg (n = 84)): 13.50%
Peripheral Edema Present at Baseline ([6]; 125 mg group (n = 84)): 13.10%
Isoleucine Visit 7 ([6]; 125 mg, mean): 60.06
Leucine Visit 7 ([6]; 125 mg, mean): 115.95
TotalBCAA Visit 7 ([6]; 125 mg, mean): 399.74
Valine Visit 7 ([6]; 125 mg, mean): 223.73
Isoleucine Change from Baseline [6, 8]: −2.92
Leucine Change from Baseline [6, 8]: −0.60
TotalBCAA Change from Baseline [6, 8]: −9.61
Isoleucine Baseline ([6]; 125 mg, mean): 62.55
Leucine Baseline ([6]; 125 mg, mean): 115.62
TotalBCAA Baseline ([6]; 125 mg, mean): 408.60
Valine Baseline ([6]; 125 mg, mean): 230.43
Peripheral Edema Present at 6 months ([6]; 250 mg (n = 85)): 11.10%
Peripheral Edema Present at Baseline ([6]; 250 mg group (n = 85)): 9.40%
Valine Visit 7 ([6]; 250 mg, N = 101, mean): 212.52
Isoleucine Change from Baseline [6, 9]: −10.10
Valine Change from Baseline [6, 9]: −17.15
Isoleucine Baseline ([6]; 250 mg, N = 101, mean): 66.92
Leucine Baseline ([6]; 250 mg, N = 101, mean): 121.54
Valine Baseline ([6]; 250 mg, N = 101, mean): 232.15
edema ([6]; 1-year Phase 2b dose-ranging trial): without precipitation of edema
glycemic control [6, 10]: improved glycemic control
insulin resistance [6, 10]: reduced insulin resistance
Mean HbA1c at Baseline ([6]; Type II diabetes subjects, 62.5 mg group): 7.09%
HbA1c Placebo-corrected change from Baseline at 6 months ([6]; Type II diabetes subjects, 62.5 mg, p 0.022): ▾0.37
Mean HbA1c at Baseline ([6]; Type II diabetes subjects, 125 mg group): 6.90%
HbA1c Placebo-corrected change from Baseline at 6 months ([6]; Type II diabetes subjects, 125 mg, p 0.001): ▾0.55
Mean HbA1c at Baseline ([6]; Type II diabetes subjects, 250 mg group): 6.97%
HbA1c Placebo-corrected change from Baseline at 6 months ([6]; Type II diabetes subjects, 250 mg, p 0.006): ▾0.45
HbA1c ([6]; Type II diabetes subjects, all doses): statistically significant improvement
HOMA-IR [6, 11]: Statistically significant reductions
HbA1c [6, 11]: Statistically significant reductions
HOMA-IR [6, 12]: statistically significant improvements
HbA1c [6, 12]: statistically significant improvements
fasting glucose [6, 12]: statistically significant improvements
insulin levels [6, 12]: statistically significant improvements
Adiponectin ([6]; all treatment cohorts): increased significantly in all treatment cohorts in a dose dependent manner
additional biomarkers of fibrosis such as hematocrit ([6]; interim analysis): trends for improvement
alkaline phosphatase ([6]; interim analysis, six months): Improvements
bilirubin ([6]; interim analysis, six months): Improvements
gamma GT ([6]; interim analysis, six months): Improvements
lipids ([6]; overall, interim analysis): neutral effect
liver enzymes, including ALT and AST ([6]; six months compared to baseline, interim analysis): statistically significant reductions
C-Reactive Protein levels ([6]; two lowest doses): decrease

From patent US20230210825A1, “METHODS AND COMPOSITIONS FOR TREATING SUBJECTS WITH METABOLIC DISORDERS AND CORONAVIRUS INFECTIONS” (CIRIUS THERAPEUTICS, INC., priority 2020, published 2023)
